{"source": "patent US20030092010A1", "about": "“Molecular switches” (priority 1999, published 2003)", "key": {"[1]": {"test_system": "CAT reporter gene downstream of the sequence AAAAAAGGCG", "assay": "transient transfection CAT reporter assay with zinc finger-HSV VP16 fusion", "assay_type": "cell-based", "conditions": "in the presence of Distamycin A; zinc finger-HSV VP16 fusion cotransfected", "excerpt": "A reporter system is produced which produces a reporter signal conditionally depending on the binding of the zinc finger DNA binding molecule to its target DNA sequence.\nA transient transfection system using zinc finger transcription factors is produced as described in Choo, Y., et al., (1997) J. Mol. Biol 273:525-532. This system comprises an expression plasmid which produces a phage-selected zinc finger fused to the activation domain of HSV VP 16. and a reporter plasmid which contains the recognition sequence of the zinc finger upstream of a CAT reporter gene.\nThus, a zinc finger which recognises the DNA sequence AAAAAAGGCG is selected by phage display as described in Example 1. By the method of the preceding examples said zinc finger is used to construct transcription factors as described above.\nA transient expression experiment is conducted, wherein the CAT reporter gene on the reporter plasmid is placed downstream of the sequence AAAAAAGGCG. The reporter plasmid is cotransfected with a plasmid vector expressing the zinc finger-HSV fision under the control of a constitutive promoter. No activation of CAT gene expression is observed."}, "[2]": {"test_system": "DNA target AAAAAGCGGAAAAA", "assay": "dissociation of zinc finger phage from DNA target by distamycin A", "assay_type": "binding", "description": "(§1) This example describes phage that bound DNA targets with higher affinity in the absence of ligand. These phage were isolated using either: (a) the same method as in example 1.1, or (b) by selection in the absence of small molecule and phage elution from DNA using a small molecule.\n(§2) Phage selection is over 4 rounds. Binding reactions contain […] biotinylated DNA site immobilised on 50 mg streptavidin coated beads (Dynal) and a 1 ml solution of ;zinc finger phage library (as described in 1.1) Reactions were incubated for 1 h on a rolling platform. After this time, beads were washed 20 times as described in 1.1 and finally phage were eluted from the beads over 5 minutes using a solution containing ligand (10 μM Distamycin A, or 1 μM Actinomycin D in PBS/Zn).\nSome phage isolated by either of the above methods (a or b) bound DNA in the absence of ligand but could be displaced by concentrations of distamycin A at 10 μM and actinomycin D at 1 μM. The distamycin sensitive clone was selected using the DNA target AAAAAGCGGAAAAA and its helices were sequenced as: […]"}, "[3]": {"test_system": "DNA sequence AAAAAGGCG", "assay": "phage ELISA: zinc finger phage binding to DNA target site in presence and absence of distamycin A", "conditions": "FIG. 1; phage clone 3 (3/2F) and clone 4 (4/EF)"}, "[4]": {"test_system": "DNA sequence AGCTTGGCG", "assay": "phage ELISA: zinc finger phage binding to DNA target in presence and absence of actinomycin D", "conditions": "FIG. 2; phage AD clone 1 and 6", "description": "Essentially the method was the same as used in the previous section using four rounds of a preselection step followed by a selection step, washing and elution. Differences in the method are described. The preselection step comprised of 7.5 μmol of biotinylated DNA target site immobilised on 18.75 μl streptavidin coated beads (Dynal) in a 100 μl mixture containing 4 μl phage library 96 μl PBS, 2% Marvel. 1% Tween-20. 50 μM ZnCl2 for 1 hour at room temperature with constant mixing. Phage selections were made in streptavidin coated tubes with the phage supernatant, 5 nM biotinylated target DNA, 10 μM actinomycin D in the presence of 1 μg poly [d(I-C)] competitor. The selections were incubated for 1 hour at room temperature. The bound phage were washed and eluted as described above.\nELISA was performed as described above but using 5 nM biotinylated target DNA. 0.25 μg poly[d(I−C)] competitor in the assay and 10 μM actinomycin D where appropriate. Phage were sequenced using Big Dye Terminator Cycle Sequencing Kit (Perkin Elmer Biosystems) and automated sequencing."}, "[5]": {"test_system": "DNA target AGCTTGGCG", "assay": "dissociation of zinc finger phage from DNA target by actinomycin D", "assay_type": "binding", "description": "as §1, §2\nThe actinomycin D sensitive clone was selected with the DNA target AGCTTGGCG and its helices were sequenced as: […]"}, "[6]": {"conditions": "phage bound DNA in the absence of ligand"}}, "note": "*1 amine or outer side, *2 acyl side, *3 side chain or, on linkers, in order; H or OH if unused. Where a SMILES comes first, the peptide text is derived from it. Bridges are numbered along the chain shown (N, C = ends). Roman numbers before positions name the chains, in order. [ ]: non-standard residue; d: D form. Actinocin(9to1) = Cc1c2oc3c(C)ccc(C(=O)[*:1])c3nc-2c(C(=O)[*:2])c(N)c1=O; NMeV = CN[C@H](C(=O)O)C(C)C; Sar = CNCC(=O)O", "data": [{"compound": "Cn1cc(NC(=O)c2cc(NC(=O)c3cc(NC=O)cn3C)cn2C)cc1C(=O)NCCC(=N)N", "note": "[Distamycin A]", "values": [{"measurement": "CAT reporter gene expression", "setting": "[1]", "value": "CAT expression is observed"}, {"measurement": "dissociation / displacement of phage from DNA by distamycin A", "setting": "[2]; FIG. 6, distamycin sensitive clone", "value": "dissociated from the DNA"}, {"measurement": "distamycin A concentration at which DNA-bound phage could be displaced", "setting": "[2]; [6]", "value": 10, "unit": "µM"}, {"measurement": "effect of Distamycin A concentration on binding of phage to the DNA sequence AAAAAGGCG", "setting": "[3]", "value": "causes phage binding to nucleic acid"}]}, {"compound": "Cc1c2oc3c(C)ccc(C(=O)N[C@@H]4C(=O)N[C@H](C(C)C)C(=O)N5CCC[C@H]5C(=O)N(C)CC(=O)N(C)[C@@H](C(C)C)C(=O)O[C@@H]4C)c3nc-2c(C(=O)N[C@@H]2C(=O)N[C@H](C(C)C)C(=O)N3CCC[C@H]3C(=O)N(C)CC(=O)N(C)[C@@H](C(C)C)C(=O)O[C@@H]2C)c(N)c1=O", "note": "[Actinomycin D] (I: T[dV]P[Sar][NMeV] / II: T[dV]P[Sar][NMeV]; ester I:1-I:C, II:1-II:C; linker I:N-II:N via Actinocin(9to1))", "values": [{"measurement": "effect of Actinomycin D concentration on binding of phage to the DNA sequence AGCTTGGCG", "setting": "[4]", "value": "causes phage binding to nucleic acid"}, {"measurement": "dissociation / displacement of phage from DNA by actinomycin D", "setting": "[5]; FIG. 6, actinomycin D sensitive clone", "value": "dissociated from the DNA"}, {"measurement": "actinomycin D concentration at which DNA-bound phage could be displaced", "setting": "[5]; [6]", "value": 1, "unit": "µM"}]}]}
